Measurements taken from patent US20050209157A1, “Short bioactive peptides and methods for their use” (priority 2001, published 2005).
In brackets after ≈: the same amount, converted by molar mass. Read-outs that look alike come from different tables or passages of the source. No end group written: not given here.

Key:
[1] = test system: Pseudomonas aeruginosa H187; format: cell-based; conditions: in µg/mL
[2] = test system: Candida glabrata ATCC15126; experiment: Antimicrobial assays II, NCCLS broth microdilution MIC; format: cell-based; conditions: in µg/mL
S. aureus (MRSA) = format: cell-based, Staphylococcus aureus; conditions: Table 13, strain SAP0017; in µg/mL
S. epidermidis C621 = format: cell-based, Staphylococcus epidermidis; conditions: Table 13; in µg/mL
E. coli UB1005 = format: cell-based, Escherichia coli; conditions: for E. coli UB1005 MIC: mean of three, 16 to 20 hours at 35° C., in µg/mL
S. typhimurium 14028S = format: cell-based, Salmonella typhimurium; conditions: for S. typhimurium 14028S MIC: mean of three, 16 to 20 hours at 35° C., in µg/mL
P. aeruginosa H374 [3] = format: cell-based, Pseudomonas aeruginosa; conditions: for P. aeruginosa H374 MIC: mean of three, 16 to 20 hours at 35° C.
Candida albicans 105 = format: cell-based; conditions: Table 13; in µg/mL
BMKC = experiment: Anti-cancer assay, MTT, LD50; format: cell-based; conditions: BMKC cloned melanoma line, 24 hours with peptide
Source text: (§1) Numbers are LD50 values (μg/mL).

MCF7 = experiment: Anti-cancer assay, MTT, LD50; format: cell-based; conditions: MCF7 breast adenocarcinoma line, MTT, 24 hours with peptide
Source text: as §1

SW480 = experiment: Anti-cancer assay, MTT, LD50; format: cell-based; conditions: SW480 colon adenocarcinoma line, 24 hours with peptide
Source text: as §1

[4] = test system: human red blood cells (RBC); experiment: in vitro; format: cell-based; conditions: hemolytic assay, concentration at 50% hemolysis, 1 hour at 37° C.
P. aeruginosa H374 [5] = format: cell-based, Pseudomonas aeruginosa; conditions: for MIC Cm-comb.: MIC of chloramphenicol with peptide at ¼ MIC; for MIC Nal-comb.: MIC of nalidixic acid with peptide at ¼ MIC; for FIC Index: 0.5 or less = synergy
Method: (§2) The synergistic effects of the inventive peptides with either chloramphenicol or nalidixic acid against efflux mutants of Pseudomonas aeruginosa were investigated. The MIC values were determined for either nalidixic acid or chloramphenicol alone as baselines. Peptides were added at their ¼ MIC concentration, and the concentration of either nalidixic acid or chloramphenicol to arrive at the MIC was determined. […] The fractional inhibitory concentration (FIC) index was used to determine synergy between peptides and antibiotics. Two-fold serial dilutions of antibiotic were tested in the presence of a constant amount of peptide, equal to one quarter of peptide MIC. The FIC index was determined as follows: FIC=0.25+MICantibiotic in combination/MICantibiotic alone. An FIC index of 0.5 or less is considered as synergy.

P. aeruginosa H774 = format: cell-based, Pseudomonas aeruginosa; conditions: P. aeruginosa H744; nalidixic acid + peptide at ¼ MIC; 0.5 or less = synergy
Method: as §2

P. aeruginosa = format: cell-based, Pseudomonas aeruginosa; conditions: P. aeruginosa H744; MIC of nalidixic acid with peptide at ¼ MIC
Method: as §2

in vitro = conditions: human, WI38 normal lung fibroblast cells, LD50 WI38, WI38 normal lung fibroblast line, MTT, 24 hours with peptide
[6] = test system: Pseudomonas aeruginosa ATCC 9027; experiment: Antimicrobial assay I, MIC by OD measurement; format: cell-based; conditions: 37° C. for 24 hours, absorbance 620 nm
[7] = test system: Staphylococcus aureus ATCC 6538; experiment: Antimicrobial assay I, MIC by OD measurement; format: cell-based; conditions: 37° C. for 24 hours, absorbance 620 nm
[8] = test system: yeast (Saccharomyces cerevisiae); experiment: Antimicrobial assay I, yeast assay in RPMI 1640; format: cell-based; conditions: RPMI 1640 media
H1299 = experiment: Anti-cancer assay, MTT, LD50; format: cell-based; conditions: 24 hours with peptide, lung large cell carcinoma
Source text: as §1

HeLaS3 = experiment: Anti-cancer assay, MTT, LD50; format: cell-based; conditions: 24 hours with peptide, cervical carcinoma
Source text: as §1

PC3 = experiment: Anti-cancer assay, MTT, LD50; format: cell-based; conditions: 24 hours with peptide, prostate adenocarcinoma
Source text: as §1

WI38 = conditions: MTT, 24 hours with peptide; normal fibroblast line
[9] = chloramphenicol + peptide at ¼ MIC
[10] = nalidixic acid + peptide at ¼ MIC, FIC=0.25+MIC comb/MIC alone

Compound | MIC P. aeruginosa H187 ([1]; Table 8) | MIC C. glabrata ATCC15126 ([2]; Table 8) | E. coli UB1005 MIC (E. coli UB1005) | S. typhimurium 14028S MIC (S. typhimurium 14028S) | P. aeruginosa H374 MIC (P. aeruginosa H374 [3]) | LD50 BMKC (BMKC) | LD50 MCF7 (MCF7) | LD50 SW480 (SW480) | LD50 [4] | MIC Cm-comb. (P. aeruginosa H374 [5]) | MIC Nal-comb. (P. aeruginosa H374 [5]) | FIC Index (P. aeruginosa H374 [5]; [9]) | FIC Index (P. aeruginosa H374 [5]; [10]) | FIC Index (P. aeruginosa H774) | MIC Nal-comb. (P. aeruginosa) | CC50 at 24 h (in vitro) | also measured
FAKKLLAKALKL-NH2 [P110 (74)] | 64 | 128 |  |  |  |  |  |  |  |  |  |  |  |  |  |  | 
FAKKFAKKFKKFAKKFAKFAFAF-NH2 [P301 (147)] |  |  |  |  |  |  |  |  |  |  |  |  |  |  |  |  | MIC S. aureus SAP0017 (S. aureus (MRSA)): 8; MIC S. epidermis C621 (S. epidermidis C621): 4; MIC E. coli UB1005 (E. coli UB1005; Table 12): 8 µg/mL; MIC S. typhimurium 14028S (S. typhimurium 14028S; Table 12): 8 µg/mL; MIC P. aeruginosa H374 (P. aeruginosa H374 [3]; Table 12, in µg/mL): 4; MIC P. aeruginosa H187 ([1]; Table 12): 8; MIC C. albicans 105 (Candida albicans 105): 32; MIC C. glabrata ATCC15126 ([2]; Table 13): 32
CC(C)C[C@H](NC(=O)[C@H](C)NC(=O)[C@H](CCCCN)NC(=O)[C@H](CC(C)C)NC(=O)[C@H](C)NC(=O)[C@H](CC(C)C)NC(=O)[C@H](C)NC(=O)[C@H](CC(C)C)NC(=O)[C@H](CCCCN)NC(=O)[C@H](C)NC(=O)[C@H](CC(C)C)NC(=O)[C@H](CCCCN)NC(=O)[C@H](CCCCN)NC(=O)[C@H](C)NC(=O)[C@H](CC(C)C)NC(=O)[C@H](CCCCN)NC(=O)[C@H](CCCCN)NC(=O)[C@H](CC(C)C)NC(=O)[C@H](CCCCN)NC(=O)[C@H](CCCCN)NC(=O)[C@H](C)NC(=O)[C@H](CC(C)C)NC(=O)[C@H](CCCCN)NC(=O)[C@H](CCCCN)NC(=O)[C@H](C)NC(=O)[C@@H](N)Cc1ccccc1)C(=O)N[C@@H](C)C(=O)N[C@@H](CC(C)C)C(=O)N[C@@H](CCCCN)C(=O)N[C@@H](C)C(=O)O [P100, reference compound] |  |  | 0.5 | 4 | 8 µg/mL | 120 µg/mL | 175 µg/mL | 82 µg/mL | > (> indicates greater than 1000) | 16 µg/mL | 2500 µg/mL | 1.25 | 0.75 | 1.25 | 624 µg/mL | 95 µg/mL (≈ 29.4 µM) | 
FAKKLAKLAKKALAL-NH2 [P39, FAKKLAKLAKKALAL-NH2] |  |  | 4 | 16 | 16 µg/mL | 510 µg/mL | 130 µg/mL | 435 µg/mL | > (> indicates greater than 1000) | 8 µg/mL | 1250 µg/mL | 0.75 | 0.5 | 1.25 | 624 µg/mL | 300 µg/mL | paerug9027 (MIC) [6]: 25 µg/mL; staph6538 (MIC) [7]: 100 µg/mL; yeast (MIC or MFC) [8]: 100 µg/mL; H1299 LD50 (H1299): 420 µg/mL; HeLaS3 LD50 (HeLaS3): 620 µg/mL; PC3 LD50 (PC3): 310 µg/mL; WI38 LD50 (WI38): 300 µg/mL
CC(C)C[C@H](NC(=O)[C@H](C)NC(=O)[C@H](CCCCN)NC(=O)[C@H](CC(C)C)NC(=O)[C@H](C)NC(=O)[C@H](CC(C)C)NC(=O)[C@H](C)NC(=O)[C@H](CC(C)C)NC(=O)[C@H](CCCCN)NC(=O)[C@H](C)NC(=O)[C@H](CC(C)C)NC(=O)[C@H](CCCCN)NC(=O)[C@H](CCCCN)NC(=O)[C@H](C)NC(=O)[C@H](CC(C)C)NC(=O)[C@H](CCCCN)NC(=O)[C@H](CCCCN)NC(=O)[C@H](CC(C)C)NC(=O)[C@H](CCCCN)NC(=O)[C@H](CCCCN)NC(=O)[C@H](C)NC(=O)[C@H](CC(C)C)NC(=O)[C@H](CCCCN)NC(=O)[C@H](CCCCN)NC(=O)[C@H](C)NC(=O)[C@@H](N)Cc1ccccc1)C(=O)N[C@@H](C)C(=O)N[C@@H](CC(C)C)C(=O)N[C@@H](CCCCN)C(=O)N[C@@H](C)C(=O)O [P100 (163)] | 32 | >128 |  |  |  |  |  |  |  |  |  |  |  |  |  |  | 
